Assay results reported in ChEMBL document CHEMBL1201862, “PubChem BioAssay data set” (2004).
Each block holds one compound with its values, some of them ahead of it. Calls of active or inactive are those of the source.

Tests used:
[1] = molecular target: 1-phosphatidylinositol 4,5-bisphosphate phosphodiesterase gamma-1 (Homo sapiens, UniProt P19174); assay: Counterscreen for inhibitors of phospholipase C isozymes (PLC-B3): Fluorescence-based biochemical high throughput dose response assay to identify inhibitors of phospholipase C isozymes (PLC-gamma1).
Sequence of 1-phosphatidylinositol 4,5-bisphosphate phosphodiesterase gamma-1 (P19174 whole entry): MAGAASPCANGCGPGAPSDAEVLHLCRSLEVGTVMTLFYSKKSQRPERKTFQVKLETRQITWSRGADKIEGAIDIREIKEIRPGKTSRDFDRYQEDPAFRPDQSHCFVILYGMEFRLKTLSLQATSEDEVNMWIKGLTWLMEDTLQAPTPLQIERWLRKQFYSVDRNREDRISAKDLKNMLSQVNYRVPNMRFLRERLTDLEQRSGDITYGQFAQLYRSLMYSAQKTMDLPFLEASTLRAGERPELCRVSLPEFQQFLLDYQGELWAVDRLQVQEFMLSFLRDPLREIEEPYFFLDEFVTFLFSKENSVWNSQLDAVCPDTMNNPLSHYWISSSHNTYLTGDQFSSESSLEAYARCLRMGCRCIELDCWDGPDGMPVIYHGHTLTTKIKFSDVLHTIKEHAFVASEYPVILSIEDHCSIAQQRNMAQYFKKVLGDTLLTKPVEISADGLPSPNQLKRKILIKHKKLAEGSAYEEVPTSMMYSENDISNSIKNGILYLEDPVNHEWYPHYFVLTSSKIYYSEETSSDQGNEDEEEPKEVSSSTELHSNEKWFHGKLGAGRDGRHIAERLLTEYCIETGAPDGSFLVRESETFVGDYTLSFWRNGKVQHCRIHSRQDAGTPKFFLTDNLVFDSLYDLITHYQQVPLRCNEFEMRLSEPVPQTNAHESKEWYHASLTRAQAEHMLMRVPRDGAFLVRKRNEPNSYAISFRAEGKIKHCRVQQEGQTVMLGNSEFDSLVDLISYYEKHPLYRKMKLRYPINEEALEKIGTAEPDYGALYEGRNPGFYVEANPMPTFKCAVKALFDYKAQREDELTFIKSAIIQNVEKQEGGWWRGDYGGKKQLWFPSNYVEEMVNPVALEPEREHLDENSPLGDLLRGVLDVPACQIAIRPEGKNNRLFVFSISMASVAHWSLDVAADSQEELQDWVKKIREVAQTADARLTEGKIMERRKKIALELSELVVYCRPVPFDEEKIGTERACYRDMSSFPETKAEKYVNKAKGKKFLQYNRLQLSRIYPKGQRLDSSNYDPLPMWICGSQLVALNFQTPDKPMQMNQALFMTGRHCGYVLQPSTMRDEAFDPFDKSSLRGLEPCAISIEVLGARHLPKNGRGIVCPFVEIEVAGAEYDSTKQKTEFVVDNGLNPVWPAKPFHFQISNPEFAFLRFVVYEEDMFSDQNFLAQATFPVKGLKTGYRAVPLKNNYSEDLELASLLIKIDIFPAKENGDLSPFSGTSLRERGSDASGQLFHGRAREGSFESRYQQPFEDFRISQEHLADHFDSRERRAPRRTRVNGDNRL

[2] = molecular target: 1-phosphatidylinositol 4,5-bisphosphate phosphodiesterase beta-3 (Homo sapiens, UniProt Q01970); assay: Fluorescence-based biochemical high throughput dose response assay to identify inhibitors of phospholipase C isozymes (PLC-B3).
cells [3] = assay: cells
HEK293 [4] = assay: inhibition of NOD1-driven NF-kB reporter – cell-based, luminescence, uHTS, primary screen (AID 1578); assay type: functional; conditions: Homo sapiens
HEK293 [5] = assay: cells; assay type: functional, cell-based; conditions: Homo sapiens
HEK293 [6] = assay: cells; assay type: functional, cell-based; conditions: Homo sapiens; remark: listed apart in the source
HEK293 [7] = assay: NOD2 signaling inhibitors in MDP-stimulated cells, cell-based, uHTS, luminescence (AID 2001); assay type: functional; conditions: Homo sapiens
Tumor necrosis factor = Tumor necrosis factor (Homo sapiens, UniProt P01375); assay: analog potency on TNFa NF-kB signaling – cell-based, revised, SAR follow-up (AID 2337); assay type: functional
Sequence of Tumor necrosis factor (P01375 whole entry, the tested form may be a part): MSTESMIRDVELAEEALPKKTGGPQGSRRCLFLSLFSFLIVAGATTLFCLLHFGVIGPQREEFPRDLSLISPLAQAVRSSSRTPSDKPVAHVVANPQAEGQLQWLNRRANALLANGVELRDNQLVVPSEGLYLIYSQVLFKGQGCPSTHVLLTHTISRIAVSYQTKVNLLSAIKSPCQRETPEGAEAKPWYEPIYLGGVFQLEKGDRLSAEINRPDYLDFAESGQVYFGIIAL

[8] = molecular target: T1, Nucleotide-binding oligomerization domain-containing protein 1 (Homo sapiens, UniProt Q9Y239); assay: blockers of NOD1 pathway activity – revised, SAR follow-up (AID 2333); assay type: functional
T1 sequence (Q9Y239 whole entry): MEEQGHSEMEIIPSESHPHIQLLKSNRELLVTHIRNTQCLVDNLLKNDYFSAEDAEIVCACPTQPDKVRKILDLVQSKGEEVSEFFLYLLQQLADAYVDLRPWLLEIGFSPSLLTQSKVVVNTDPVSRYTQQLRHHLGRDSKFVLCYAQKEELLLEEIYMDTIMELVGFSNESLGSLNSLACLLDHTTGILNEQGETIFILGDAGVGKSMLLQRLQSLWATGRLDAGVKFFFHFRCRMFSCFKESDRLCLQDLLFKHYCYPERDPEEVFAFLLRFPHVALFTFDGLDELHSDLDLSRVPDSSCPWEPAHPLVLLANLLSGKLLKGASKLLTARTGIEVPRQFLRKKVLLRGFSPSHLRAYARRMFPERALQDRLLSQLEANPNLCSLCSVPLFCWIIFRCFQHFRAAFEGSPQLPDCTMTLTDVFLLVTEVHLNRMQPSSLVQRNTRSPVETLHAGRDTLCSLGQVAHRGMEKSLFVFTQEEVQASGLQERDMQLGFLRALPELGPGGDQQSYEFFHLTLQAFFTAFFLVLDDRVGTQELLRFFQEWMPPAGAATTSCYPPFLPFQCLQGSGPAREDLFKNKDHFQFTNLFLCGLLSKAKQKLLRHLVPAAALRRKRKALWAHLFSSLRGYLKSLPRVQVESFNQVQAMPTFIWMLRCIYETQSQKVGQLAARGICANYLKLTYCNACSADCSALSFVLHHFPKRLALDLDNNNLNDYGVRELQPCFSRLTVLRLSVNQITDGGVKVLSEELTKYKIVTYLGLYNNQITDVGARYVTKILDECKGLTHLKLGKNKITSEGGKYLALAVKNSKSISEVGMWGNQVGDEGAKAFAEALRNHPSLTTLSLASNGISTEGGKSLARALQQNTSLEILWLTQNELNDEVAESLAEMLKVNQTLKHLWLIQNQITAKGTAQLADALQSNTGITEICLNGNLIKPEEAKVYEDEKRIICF

[9] = reduction of Shn3 3'UTR-driven luciferase in osteoblasts – cell-based, Clone20 osteoblasts, firefly luciferase, cherry-picked, dose response (AID 624132); assay type: functional;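 note: firefly luciferase luminescence from reporter carrying the Shn3 3'UTR in osteoblasts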
[10] = loss of viability in HepG2 cells – cell-based, CellTiter-Glo, cherry-picked, cytotoxicity control for Shn3 inhibitor project, dose response (AID 624134); assay type: functional
[11] = non-specific 3'UTR reporter inhibition in Clone20-Shn3RL – cell-based, Renilla luciferase, cherry-picked, counter-screen for Shn3 inhibitor project, dose response (AID 624133); assay type: functional
[12] = Shn3 3'UTR reporter signal decrease – cell-based, Clone20 osteoblasts, firefly luciferase, cherry-pick, set 2, Schnurri-3 inhibitor project, dose response (AID 720490); assay type: functional;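 note: actives lower the luminescence signal as inhibitors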
HEK293 [13] = assay: cells; conditions: Homo sapiens
[14] = Luminescence Cell-Based Dose Retest to Confirm Inhibitors of Cancer Stem Cells. [Related pubchem assays (depositor defined):AID2717, AID2721]; assay type: functional; conditions: Homo sapiens
[15] = potency of ADAM10 substrate cleavage blockers – biochemical, QFRET, dose response (AID 743254);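 note: ADAM10 enzyme with the DM2 quenched FRET peptide as substrate; EDANS fluorescence gain as the protease cuts the substrate; inhibitor potency against ADAM10 proteolytic activity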
[16] = molecular target: Disintegrin and metalloproteinase domain-containing protein 17 (Homo sapiens, UniProt P78536); assay: inhibition of ADAM17 substrate cleavage – biochemical, quenched FRET substrate, counter-screen for ADAM10 exosite inhibitor project, dose response (AID 743253)
Sequence of Disintegrin and metalloproteinase domain-containing protein 17 (P78536 whole entry, the tested form may be a part): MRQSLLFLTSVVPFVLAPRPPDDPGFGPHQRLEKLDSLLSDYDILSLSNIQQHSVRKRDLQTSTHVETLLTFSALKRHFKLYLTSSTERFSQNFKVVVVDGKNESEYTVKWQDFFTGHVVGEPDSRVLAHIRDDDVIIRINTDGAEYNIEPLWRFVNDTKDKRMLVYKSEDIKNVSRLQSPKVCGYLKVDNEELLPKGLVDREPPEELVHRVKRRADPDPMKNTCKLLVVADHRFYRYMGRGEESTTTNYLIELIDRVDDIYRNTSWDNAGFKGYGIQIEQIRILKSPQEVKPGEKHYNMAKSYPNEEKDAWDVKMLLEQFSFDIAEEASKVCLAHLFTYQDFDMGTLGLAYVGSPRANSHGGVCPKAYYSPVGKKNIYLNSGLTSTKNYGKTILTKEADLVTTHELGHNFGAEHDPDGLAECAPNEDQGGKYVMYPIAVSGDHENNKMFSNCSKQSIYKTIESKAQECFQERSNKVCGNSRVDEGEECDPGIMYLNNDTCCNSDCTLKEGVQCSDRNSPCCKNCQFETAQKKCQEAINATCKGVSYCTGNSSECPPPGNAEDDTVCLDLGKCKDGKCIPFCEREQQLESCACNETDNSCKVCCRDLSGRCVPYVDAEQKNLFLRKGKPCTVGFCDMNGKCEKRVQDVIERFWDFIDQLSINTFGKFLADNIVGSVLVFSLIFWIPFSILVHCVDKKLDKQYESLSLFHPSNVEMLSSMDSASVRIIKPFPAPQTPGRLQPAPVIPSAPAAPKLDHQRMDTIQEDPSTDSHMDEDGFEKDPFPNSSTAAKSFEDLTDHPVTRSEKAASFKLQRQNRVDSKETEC

Keap1/Nrf2 = Keap1/Nrf2 (Homo sapiens, UniProt Q14145); assay: disruptors of Keap1 binding to Nrf2 peptide – biochemical, fluorescence polarization, cherry-picked samples, dose response (AID 588683)
[17] = disruptors of Keap1/Nrf2 protein interaction – biochemical, fluorescence polarization, dry powder, set 3, dose response (AID 651806)
Fatty acid synthase [18] = molecular target: T2, Fatty acid synthase (Homo sapiens, UniProt P49327); assay: inhibition of human FAS-TE enzyme activity – biochemical, endpoint fluorescence intensity, uHTS hits, dose response (AID 624327); assay type: functional;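 note: fluorescence from hydrolysis of an O-methyl fluorescein acyl ester substrate by the enzyme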
T2 sequence (P49327 whole entry): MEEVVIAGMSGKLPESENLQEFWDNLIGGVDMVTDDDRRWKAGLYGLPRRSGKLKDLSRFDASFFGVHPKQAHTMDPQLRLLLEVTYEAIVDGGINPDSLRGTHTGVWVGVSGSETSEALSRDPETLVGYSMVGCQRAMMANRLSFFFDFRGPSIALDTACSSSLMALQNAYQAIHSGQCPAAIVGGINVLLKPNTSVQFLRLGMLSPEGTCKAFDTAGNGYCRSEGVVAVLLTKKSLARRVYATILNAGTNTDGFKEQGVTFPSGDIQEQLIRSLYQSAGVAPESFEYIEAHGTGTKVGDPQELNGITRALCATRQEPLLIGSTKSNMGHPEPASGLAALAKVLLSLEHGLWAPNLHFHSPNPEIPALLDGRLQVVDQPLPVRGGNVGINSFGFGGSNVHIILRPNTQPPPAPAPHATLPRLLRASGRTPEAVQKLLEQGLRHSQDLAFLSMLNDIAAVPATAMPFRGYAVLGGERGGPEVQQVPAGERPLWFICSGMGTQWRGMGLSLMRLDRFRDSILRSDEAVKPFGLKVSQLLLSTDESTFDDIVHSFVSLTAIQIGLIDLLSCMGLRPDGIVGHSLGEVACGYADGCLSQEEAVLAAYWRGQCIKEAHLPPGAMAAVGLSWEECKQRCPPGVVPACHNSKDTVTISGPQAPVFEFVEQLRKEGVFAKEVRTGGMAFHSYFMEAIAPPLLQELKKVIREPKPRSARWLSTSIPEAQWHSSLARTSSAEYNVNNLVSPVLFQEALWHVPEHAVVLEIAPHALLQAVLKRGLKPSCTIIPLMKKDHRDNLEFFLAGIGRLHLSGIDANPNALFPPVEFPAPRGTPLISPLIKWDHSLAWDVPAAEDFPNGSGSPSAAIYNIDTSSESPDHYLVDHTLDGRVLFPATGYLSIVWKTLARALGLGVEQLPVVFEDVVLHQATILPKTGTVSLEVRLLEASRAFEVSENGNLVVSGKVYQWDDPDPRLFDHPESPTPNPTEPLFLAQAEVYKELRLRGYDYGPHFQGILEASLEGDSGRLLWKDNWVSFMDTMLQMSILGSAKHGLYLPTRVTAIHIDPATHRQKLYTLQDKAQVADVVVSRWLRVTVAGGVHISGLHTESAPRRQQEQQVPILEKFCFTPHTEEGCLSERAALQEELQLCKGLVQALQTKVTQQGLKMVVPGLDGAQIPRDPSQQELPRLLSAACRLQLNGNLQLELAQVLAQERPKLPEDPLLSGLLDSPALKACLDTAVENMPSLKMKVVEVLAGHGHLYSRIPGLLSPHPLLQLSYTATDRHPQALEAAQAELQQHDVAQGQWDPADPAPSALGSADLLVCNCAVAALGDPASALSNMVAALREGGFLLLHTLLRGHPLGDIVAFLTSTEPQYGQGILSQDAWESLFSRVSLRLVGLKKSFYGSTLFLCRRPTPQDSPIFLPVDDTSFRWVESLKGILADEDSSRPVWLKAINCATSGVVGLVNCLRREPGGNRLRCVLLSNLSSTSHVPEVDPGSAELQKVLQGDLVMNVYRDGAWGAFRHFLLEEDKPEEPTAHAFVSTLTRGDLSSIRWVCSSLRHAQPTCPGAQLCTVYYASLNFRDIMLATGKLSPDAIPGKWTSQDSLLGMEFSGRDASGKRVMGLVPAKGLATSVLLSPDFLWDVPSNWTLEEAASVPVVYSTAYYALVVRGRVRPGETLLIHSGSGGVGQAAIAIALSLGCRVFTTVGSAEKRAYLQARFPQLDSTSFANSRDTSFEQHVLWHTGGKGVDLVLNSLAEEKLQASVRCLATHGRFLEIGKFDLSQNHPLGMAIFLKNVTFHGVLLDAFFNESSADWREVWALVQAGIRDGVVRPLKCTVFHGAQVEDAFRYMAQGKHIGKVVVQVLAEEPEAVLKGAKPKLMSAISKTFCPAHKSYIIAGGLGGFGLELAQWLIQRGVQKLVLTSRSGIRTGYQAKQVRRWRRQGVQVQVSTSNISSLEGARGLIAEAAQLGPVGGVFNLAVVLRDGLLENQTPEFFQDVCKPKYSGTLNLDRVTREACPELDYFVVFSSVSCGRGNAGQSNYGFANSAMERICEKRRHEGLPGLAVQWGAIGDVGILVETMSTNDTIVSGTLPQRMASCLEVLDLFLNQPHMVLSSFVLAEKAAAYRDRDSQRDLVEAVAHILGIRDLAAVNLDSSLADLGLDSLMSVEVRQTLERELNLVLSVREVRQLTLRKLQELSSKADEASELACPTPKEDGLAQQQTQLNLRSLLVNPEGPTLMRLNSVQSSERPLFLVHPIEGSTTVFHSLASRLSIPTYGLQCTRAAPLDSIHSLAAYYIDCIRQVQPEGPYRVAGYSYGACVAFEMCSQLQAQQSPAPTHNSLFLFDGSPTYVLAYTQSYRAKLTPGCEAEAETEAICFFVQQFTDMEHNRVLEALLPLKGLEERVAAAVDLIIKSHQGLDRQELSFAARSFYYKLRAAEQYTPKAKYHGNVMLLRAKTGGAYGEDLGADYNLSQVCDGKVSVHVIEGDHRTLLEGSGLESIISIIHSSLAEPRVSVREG

Fatty acid synthase [19] = molecular target: T2, Fatty acid synthase; assay: inhibition of human FAS-TE enzyme activity – biochemical, kinetic fluorescence intensity, dose response (AID 624326); assay type: functional;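 note: rate of fluorescence rise from hydrolysis of a fluorogenic O-methyl fluorescein ester substrate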
Fatty acid synthase [20] = molecular target: T2, Fatty acid synthase; assay: inhibition of human FAS-TE enzyme activity – biochemical, endpoint fluorescence intensity, powder samples, SAR follow-up (AID 652164); assay type: functional
fMet-Leu-Phe receptor = fMet-Leu-Phe receptor (Homo sapiens, UniProt P21462); assay: formyl peptide receptor binders – dose response (AID 519); assay type: functional
[21] = inhibitors acting on PAX2 in cells – cell-based, plate reader, dry powder samples, selectivity assay for PAX8 inhibitor project, dose response (AID 743048); assay type: functional;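 note: HEK293 cells carrying a WT1 promoter luciferase reporter driven by expressed Pax2; potency is for inhibition of Pax2 driven reporter signal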
[22] = COV362 cell viability loss – plate reader, dry powder, SA12, cytotoxicity control for PAX8 inhibitor project, dose response (AID 743144); assay type: functional, cell-based
[23] = toxicity toward immortalized ovarian surface epithelium – cell-based, plate reader, dry powder samples, cytotoxicity control for PAX8 inhibitor project, dose response (AID 743045); assay type: functional
[24] = A2780 cell killing – plate reader, dry powder samples, cytotoxicity control, dose response (AID 743046); assay type: functional, cell-based
[25] = OVCAR-3 cell viability loss – plate reader, dry powder samples, PAX8 inhibitor project, dose response (AID 743044); assay type: functional, cell-based
[26] = IGROV1 cell killing – plate reader, dry powder samples, PAX8 inhibitor project, dose response (AID 743043); assay type: functional, cell-based; conditions: IGROV-1
[27] = OVCAR4 cell viability loss – plate reader, dry powder, SA11, cytotoxicity control for PAX8 inhibitor project, dose response (AID 743150); assay type: functional, cell-based; conditions: OVCAR-4
[28] = COV434 cell viability loss – plate reader, dry powder, SA7, cytotoxicity control for PAX8 inhibitor project, dose response (AID 743145); assay type: functional, cell-based
[29] = OV-90 cell viability loss – plate reader, dry powder, SA8, PAX8 inhibitor project, dose response (AID 743149); assay type: functional, cell-based
[30] = PAX8-dependent cell viability loss – plate reader, dry powder, dose response (AID 743049); assay type: functional, cell-based
[31] = molecular target: T3, Oxysterols receptor LXR-beta (Homo sapiens, UniProt P55055); assay type: functional, cell-based;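 note: Cell-based luminescence dose-response assay of agonist activity at LXR, run as a confirmatory counterscreen to a daf-12 agonist screen; HEK293 cells with Gal4-LXR fusion and GAL4-driven luciferase reporter; agonist potency from rising luciferase signal of a Gal4-LXR reporter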
T3 sequence (P55055 whole entry): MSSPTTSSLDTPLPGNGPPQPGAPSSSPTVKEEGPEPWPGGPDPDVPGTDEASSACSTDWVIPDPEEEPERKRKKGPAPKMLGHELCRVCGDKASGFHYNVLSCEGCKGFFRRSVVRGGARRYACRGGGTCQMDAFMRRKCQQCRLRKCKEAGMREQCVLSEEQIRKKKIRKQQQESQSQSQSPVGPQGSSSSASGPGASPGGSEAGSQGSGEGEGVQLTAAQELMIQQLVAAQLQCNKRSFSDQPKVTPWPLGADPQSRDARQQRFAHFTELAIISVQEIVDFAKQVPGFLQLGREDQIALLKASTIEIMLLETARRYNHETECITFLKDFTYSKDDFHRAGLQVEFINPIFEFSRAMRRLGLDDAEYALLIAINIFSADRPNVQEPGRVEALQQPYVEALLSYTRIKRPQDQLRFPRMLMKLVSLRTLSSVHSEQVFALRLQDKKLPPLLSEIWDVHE

cells [32] = assay: cells; remark: listed apart in the source

IC50 [1]: > 122 µM (inactive)
IC50 [2]: > 122 µM (inactive)
SMILES: CCCCN=C(S)NNC(=O)c1csc(CC)c1

SMILES: COc1ccc(C2C3=C(CCCC3=O)N(CC(=O)O)C3=C2C(=O)CCC3)cc1
AC50 (cells [3]): 5.91 µM (active)

SMILES: CC1Cc2cc(S(=O)(=O)N3CCN(c4ccc(Cl)cc4)CC3)ccc2N1C(=O)C1CC1 (stereo not given)
EC50 (HEK293 [4]): > 20 µM (inactive)
IC50 (HEK293 [5]): 2.22 µM (active)
IC50 (HEK293 [6]): > 20 µM (inactive)
IC50 (HEK293 [7]): 4.43 µM (active)
IC50 (Tumor necrosis factor): 9.52 µM (active)
IC50 [8]: 5.6 µM (active)
AC50 [9]: 4.26 µM (active)
AC50 [10]: 64.6 µM (active)
AC50 [11]: 25.4 µM (active)
AC50 [12]: 5 µM (active)
IC50 (HEK293 [13]): > 20 µM (inactive)

SMILES: Cc1ccc(S(=O)(=O)Nc2ccc(-c3csc(-c4ccccc4)n3)cc2)cc1
AC50 [14]: 3.5 µM (active)
IC50 [15]: > 69.5 µM (inactive)
IC50 [16]: > 69.5 µM (inactive)

AC50 (Keap1/Nrf2): 2.67 µM (active)
SMILES: Cc1ccc(S(=O)(=O)Nc2cc(C(C(=O)OC(C)C)C(=O)C(F)(F)F)c(O)c3ccccc23)c(C)c1 (stereo not given)
AC50 [17]: 74.9 µM (active)

IC50 (Fatty acid synthase [18]): 614 nM (active)
IC50 (Fatty acid synthase [19]): 530 nM (active)
IC50 (Fatty acid synthase [20]): 874 nM (active)
SMILES: CC(C)C(=O)Nc1nc(-c2ccc(S(=O)(=O)N3CCOCC3)cc2)cs1

Ki (fMet-Leu-Phe receptor): > 66.7 µM (inactive)
SMILES: CCOc1cc(C2C(C(=O)c3ccco3)=C(O)C(=O)N2CCc2ccccc2)ccc1O (stereo not given)

SMILES: COc1ccc(OC)c2sc(N(CCCN(C)C)C(=O)CCS(=O)(=O)c3ccccc3)nc12
AC50 [21]: 56.3 µM (active)
AC50 [22]: 12 µM (active)
AC50 [23]: 14.5 µM (active)
AC50 [24]: 40 µM (active)
AC50 [25]: 7.2 µM (active)
AC50 [26]: 25.5 µM (active)
AC50 [27]: 22.8 µM (active)
AC50 [28]: 5.66 µM (active)
AC50 [29]: 17.3 µM (active)
AC50 [30]: 13.2 µM (active)

SMILES: N#Cc1ccsc1NC(=O)CSc1nncs1
EC50 [31]: > 67.5 µM (inactive)
EC50 (cells [32]): > 67.5 µM (inactive)
